Laboratory results reported in patent publication US20110196000A1, “Use of succinate dehydrogenase (SDH) inhibitors in the treatment of plant species from the family of the true grasses” (Bayer CropScience AG, priority 2010, published 2011).

How the values were obtained:
Type in all cases: in vivo
wheat variety Ritmo [1] = assay: Plot trial in Germany: green leaf area by visual scoring; conditions: sprays at BBCH 39 and 59
Protocol: In Germany a plot trial was set up with the wheat variety Ritmo in order to investigate the effect of bixafen on the physiology, morphology and abiotic stress tolerance of wheat plants under realistic agricultural conditions. The products under test were applied to the plants, in the form of sequential spray sequences (BBCH 39 and 59). The spray volume was 400 l of water per hectare. In each trial component, 5 repetitions were carried out. [table] The duration of green coloration of the leaf area was captured by regular visual scoring of the fraction of green leaf area.

wheat variety Ritmo [2] = assay: Plot trial: chlorophyll content of leaves (pigment extraction method of Ziegler and Ehle)
wheat variety Ritmo [3] = assay: Plot trial: yield components; conditions: sprays at BBCH 39 and 59
[4] = 7 days after second fungicide application
[5] = 14 days after second fungicide application
[6] = 21 days after second fungicide application
[7] = 28 days after second fungicide application
[8] = 35 days after second fungicide application
[9] = 42 days after second fungicide application

O=C(Nc1ccccc1-c1ccc(Cl)cc1)c1cccnc1Cl [Boscalid, 2-chloro-N-(4′-chlorobiphenyl-2-yl)nicotinamide]
green leaf area of the flag leaf (wheat variety Ritmo [1]; [4]): 96.0 % leaf area
green leaf area of the second-from-top leaf (F-1) (wheat variety Ritmo [1]; [4]): 94.4 % leaf area
green leaf area of the third-from-top leaf (F-2) (wheat variety Ritmo [1]; [4]): 90.3 % leaf area
green leaf area of the flag leaf (wheat variety Ritmo [1]; [5]): 95.5 % leaf area
green leaf area of the second-from-top leaf (F-1) (wheat variety Ritmo [1]; [5]): 91.8 % leaf area
green leaf area of the third-from-top leaf (F-2) (wheat variety Ritmo [1]; [5]): 85.8 % leaf area
green leaf area of the flag leaf (wheat variety Ritmo [1]; [6]): 86.1 % leaf area
green leaf area of the second-from-top leaf (F-1) (wheat variety Ritmo [1]; [6]): 74.7 % leaf area
green leaf area of the third-from-top leaf (F-2) (wheat variety Ritmo [1]; [6]): 61.5 % leaf area
green leaf area of the flag leaf (wheat variety Ritmo [1]; [7]): 73.6 % leaf area
green leaf area of the second-from-top leaf (F-1) (wheat variety Ritmo [1]; [7]): 60.0 % leaf area
green leaf area of the third-from-top leaf (F-2) (wheat variety Ritmo [1]; [7]): 41.0 % leaf area
green leaf area of the flag leaf (wheat variety Ritmo [1]; [8]): 43.2 % leaf area
green leaf area of the second-from-top leaf (F-1) (wheat variety Ritmo [1]; [8]): 25.5 % leaf area
green leaf area of the third-from-top leaf (F-2) (wheat variety Ritmo [1]; [8]): 4.6 % leaf area
green leaf area of the flag leaf (wheat variety Ritmo [1]; [9]): 7.0 % leaf area
green leaf area of the second-from-top leaf (F-1) (wheat variety Ritmo [1]; [9]): 0 % leaf area
green leaf area of the third-from-top leaf (F-2) (wheat variety Ritmo [1]; [9]): 0 % leaf area
green leaf area of the second-from-top leaf (F-1) (wheat variety Ritmo [1]; 49 days after second fungicide application): 0 % leaf area
Chlorophyll content (wheat variety Ritmo [2]; BBCH 75 (mature milk), leaf F): 1597 µg/g
Chlorophyll content (wheat variety Ritmo [2]; BBCH 75 (mature milk), leaf F-1): 1505 µg/g
Chlorophyll content (wheat variety Ritmo [2]; BBCH 75 (mature milk), leaf F-2): 826 µg/g
Chlorophyll content (wheat variety Ritmo [2]; BBCH 85 (mature dough), leaf F): 188 µg/g
Chlorophyll content (wheat variety Ritmo [2]; BBCH 85 (mature dough), leaf F-1): 160 µg/g
Chlorophyll content (wheat variety Ritmo [2]; BBCH 85 (mature dough), leaf F-2): 110 µg/g
Ears/m^2 (wheat variety Ritmo [3]): 444
Harvest Index (wheat variety Ritmo [3]): 58.6
Straw (wheat variety Ritmo [3]): 514 g m^−2
TKM (thousand-kernel mass) (wheat variety Ritmo [3]): 44.6 g
Yield (wheat variety Ritmo [3]): 7.8 t ha^−1
